According to ChEMBL document CHEMBL1201862, “PubChem BioAssay data set” (2004):
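Method: 48-hour compound exposure of cells in 96-well plates, five concentrations, linear interpolation of endpoints. GI50: concentration for 50% inhibition of growth.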 Activity calls are given as the source filed them. Rule as the data show it: active = GI50 up to about 1.1 µM and inactive = higher.

Columns and labels:
Assay in all cases: NCI anticancer screen, dose series, 48 h
HOP-92 = system: HOP-92
DMS-273 = system: DMS-273
786-0 = system: 786-0
SN12C = system: SN12C
OVCAR-4 = system: OVCAR-4
SNB-75 = system: SNB-75
NCI-H23 = system: NCI-H23
OVCAR-5 = system: OVCAR-5
UACC-62 = system: UACC-62
SR = system: SR
SK-OV-3 = system: SK-OV-3
HOP-62 = system: HOP-62
UACC-257 = system: UACC-257
OVCAR-8 = system: OVCAR-8
IGROV-1 = system: IGROV-1
A549 = system: A549
SNB-78 = system: SNB-78
SF-295 = system: SF-295
HCT-15 = system: HCT-15
MOLT-4 = system: MOLT-4
HCC 2998 = system: HCC 2998
SW-620 = system: SW-620
LXFL 529 = system: LXFL 529
DLD-1 = system: DLD-1
TK-10 = system: TK-10
OVCAR-3 = system: OVCAR-3
SK-MEL-28 = system: SK-MEL-28
RPMI-8226 = system: RPMI-8226
KM12 = system: KM12
LOX IMVI = system: LOX IMVI
RXF 393 = system: RXF 393
SF-539 = system: SF-539
K562 = system: K562
CCRF-CEM = system: CCRF-CEM
NCI-H522 = system: NCI-H522
M19-MEL = system: M19-MEL
M14 = system: M14
U-251 = system: U-251
Malme-3M = system: Malme-3M
SK-MEL-2 = system: SK-MEL-2
SK-MEL-5 = system: SK-MEL-5
ACHN = system: ACHN
SF-268 = system: SF-268
HL-60 = system: HL-60
NCI-H226 = system: NCI-H226
HCT-116 = system: HCT-116
CAKI-1 = system: CAKI-1
DMS-114 = system: DMS-114
COLO 205 = system: COLO 205
MDA-MB-435 = system: MDA-MB-435
Hs-578T = system: Hs-578T
UO-31 = system: UO-31
T47D = system: T47D
NCI/ADR-RES = system: NCI/ADR-RES
MCF7 = system: MCF7
NCI-H460 = system: NCI-H460
BT-549 = system: BT-549
KM-20L2 = system: KM-20L2
MDA-MB-231 = system: MDA-MB-231
A498 = system: A498
PC-3 = system: PC-3
MDA-N = system: MDA-N
DU-145 = system: DU-145
HT-29 = system: HT-29
SNB-19 = system: SNB-19

`COc1ccc(/N=c2\ssc3c(=S)ssc23)cc1` was tested, and the GI50 (HOP-92) was 15.5 µM (inactive), the GI50 (DMS-273) was 26.4 µM (inactive) and the GI50 (786-0) was 34.1 µM (inactive). For the same compound, the GI50 (SN12C) was 37.8 µM (inactive), the GI50 (OVCAR-4) was 34.9 µM (inactive) and the GI50 (SNB-75) was 19.4 µM (inactive). For the same compound, the GI50 (NCI-H23) was 34.5 µM (inactive), the GI50 (OVCAR-5) was 30.2 µM (inactive) and the GI50 (UACC-62) was 20.2 µM (inactive). For the same compound, the GI50 (SR) was 3.61 µM (inactive), the GI50 (SK-OV-3) was > 100 µM (inactive) and the GI50 (HOP-62) was > 100 µM (inactive). For the same compound, the GI50 (UACC-257) was > 10 µM (inactive), the GI50 (OVCAR-8) was 17 µM (inactive) and the GI50 (IGROV-1) was 5.94 µM (inactive). For the same compound, the GI50 (A549) was 31.1 µM (inactive), the GI50 (SNB-78) was 34.2 µM (inactive) and the GI50 (SF-295) was 53.3 µM (inactive). The GI50 (HCT-15) was 18.3 µM, the GI50 (MOLT-4) was 3.72 µM (inactive) and the GI50 (HCC 2998) was 37.2 µM (inactive). For the same compound, the GI50 (SW-620) was 15.3 µM (inactive), the GI50 (LXFL 529) was 14.8 µM (inactive) and the GI50 (DLD-1) was 15.5 µM (inactive). For the same compound, the GI50 (TK-10) was 57.9 µM (inactive), the GI50 (OVCAR-3) was 25.2 µM (inactive) and the GI50 (SK-MEL-28) was 25.3 µM (inactive). For the same compound, the GI50 (RPMI-8226) was 9.91 µM (inactive), the GI50 (KM12) was 62.7 µM (inactive) and the GI50 (LOX IMVI) was 15.7 µM (inactive). The GI50 (RXF 393) was 21.2 µM (inactive), the GI50 (SF-539) was 27.4 µM (inactive) and the GI50 (K562) was 3.99 µM (inactive). For the same compound, the GI50 (CCRF-CEM) was 3.68 µM (inactive), the GI50 (NCI-H522) was 13.9 µM (inactive) and the GI50 (M19-MEL) was 30.2 µM (inactive). For the same compound, the GI50 (M14) was 20 µM (inactive), the GI50 (U-251) was 28.4 µM (inactive) and the GI50 (Malme-3M) was 34.9 µM (inactive). For the same compound, the GI50 (SK-MEL-2) was 60 µM (inactive), the GI50 (SK-MEL-5) was 19.4 µM (inactive) and the GI50 (ACHN) was 23.8 µM (inactive). For the same compound, the GI50 (SF-268) was 35.7 µM (inactive), the GI50 (HL-60) was 4.09 µM (inactive) and the GI50 (NCI-H226) was > 100 µM (inactive). For the same compound, the GI50 (HCT-116) was 26 µM (inactive), the GI50 (CAKI-1) was 91.4 µM (inactive) and the GI50 (DMS-114) was 0.959 µM (active).

In the case of `CC(=O)O.CN1CCN(CN2C(=O)C3C4C=CC(C3C2=O)C2C3C(=O)N(CN5CCN(C)CC5)C(=O)C3C42)CC1` (stereo unspecified), the GI50 (COLO 205) is reported as 19 µM (inactive), the GI50 (786-0) is reported as 19.9 µM (inactive) and the GI50 (SN12C) is reported as 21.4 µM (inactive). For the same compound, the GI50 (OVCAR-4) was 21.4 µM (inactive), the GI50 (SNB-75) was 23.3 µM (inactive) and the GI50 (NCI-H23) was 20.7 µM (inactive). For the same compound, the GI50 (MDA-MB-435) was 17.1 µM (inactive), the GI50 (Hs-578T) was > 100 µM (inactive) and the GI50 (UO-31) was 25.2 µM (inactive). For the same compound, the GI50 (OVCAR-5) was 23.9 µM (inactive), the GI50 (UACC-62) was 20.7 µM (inactive) and the GI50 (T47D) was 30 µM (inactive). The GI50 (SR) was 13.4 µM (inactive), the GI50 (HOP-62) was > 50 µM (inactive) and the GI50 (NCI/ADR-RES) was 24.2 µM (inactive). For the same compound, the GI50 (MCF7) was 32.3 µM (inactive), the GI50 (OVCAR-8) was 27.8 µM (inactive) and the GI50 (IGROV-1) was 35.5 µM (inactive). For the same compound, the GI50 (A549) was 22 µM (inactive), the GI50 (HCT-15) was 18.9 µM and the GI50 (MOLT-4) was 20.2 µM (inactive). For the same compound, the GI50 (HCC 2998) was 22.2 µM (inactive), the GI50 (SW-620) was 22.2 µM (inactive) and the GI50 (LXFL 529) was 18.1 µM (inactive). For the same compound, the GI50 (DLD-1) was 19.1 µM (inactive), the GI50 (NCI-H460) was 16.3 µM (inactive) and the GI50 (TK-10) was 45.3 µM (inactive). For the same compound, the GI50 (BT-549) was 25.5 µM (inactive), the GI50 (OVCAR-3) was 24.3 µM (inactive) and the GI50 (SK-MEL-28) was 28 µM (inactive). For the same compound, the GI50 (RPMI-8226) was 22.2 µM (inactive), the GI50 (KM12) was 22.3 µM (inactive) and the GI50 (LOX IMVI) was 18.2 µM (inactive). The GI50 (KM-20L2) was 20.3 µM (inactive), the GI50 (RXF 393) was 17.7 µM (inactive) and the GI50 (SF-539) was 21.1 µM (inactive). The GI50 (K562) was 22.2 µM (inactive), the GI50 (MDA-MB-231) was 24.4 µM (inactive) and the GI50 (CCRF-CEM) was 18.5 µM (inactive). For the same compound, the GI50 (NCI-H522) was 18.6 µM (inactive), the GI50 (A498) was > 55.3 µM (inactive) and the GI50 (M14) was 18.9 µM (inactive). For the same compound, the GI50 (U-251) was 19 µM (inactive), the GI50 (Malme-3M) was 18.3 µM (inactive) and the GI50 (SK-MEL-5) was 23.4 µM (inactive). For the same compound, the GI50 (PC-3) was 33.7 µM (inactive), the GI50 (ACHN) was 27.6 µM (inactive) and the GI50 (SF-268) was 27.5 µM (inactive). The GI50 (MDA-N) was 17.8 µM (inactive), the GI50 (DU-145) was 25.1 µM (inactive) and the GI50 (HCT-116) was 16.6 µM (inactive). The GI50 (HT-29) was 25.3 µM (inactive) and the GI50 (DMS-114) was 20.1 µM (inactive).

In the case of `COC(=O)C(Cc1ccccc1)/N=C/c1c(O)c(O)c(C(C)C)c2cc(C)c(-c3c(C)cc4c(C(C)C)c(O)c(O)c(/C=N/C(Cc5ccccc5)C(=O)OC)c4c3O)c(O)c12` (stereo unspecified), the GI50 (HOP-92) is reported as 23.8 µM (inactive), the GI50 (COLO 205) is reported as 30.3 µM (inactive) and the GI50 (OVCAR-4) is reported as 21.3 µM (inactive). The GI50 (SNB-75) was 67.9 µM (inactive), the GI50 (NCI-H23) was 26.4 µM (inactive) and the GI50 (UO-31) was 22.3 µM (inactive). The GI50 (OVCAR-5) was 15.5 µM (inactive), the GI50 (UACC-62) was 22.5 µM (inactive) and the GI50 (SR) was 2.36 µM (inactive). For the same compound, the GI50 (SK-OV-3) was 23.7 µM (inactive), the GI50 (HOP-62) was 31.8 µM (inactive) and the GI50 (UACC-257) was 21.6 µM (inactive). For the same compound, the GI50 (SNB-19) was 31.8 µM (inactive), the GI50 (IGROV-1) was 28.7 µM (inactive) and the GI50 (SNB-78) was 6.21 µM (inactive). The GI50 (SF-295) was 15.8 µM (inactive), the GI50 (MOLT-4) was 2.38 µM (inactive) and the GI50 (LXFL 529) was 18 µM (inactive). The GI50 (NCI-H460) was 23 µM (inactive), the GI50 (OVCAR-3) was 17 µM (inactive) and the GI50 (SK-MEL-28) was 28.8 µM (inactive). For the same compound, the GI50 (RPMI-8226) was 22.4 µM (inactive), the GI50 (KM12) was 16.1 µM (inactive) and the GI50 (KM-20L2) was 20 µM (inactive). For the same compound, the GI50 (RXF 393) was 15 µM (inactive), the GI50 (SF-539) was 17 µM (inactive) and the GI50 (K562) was 18.7 µM (inactive). For the same compound, the GI50 (CCRF-CEM) was 7.82 µM (inactive), the GI50 (NCI-H522) was 21.6 µM (inactive) and the GI50 (M19-MEL) was 36.8 µM (inactive). The GI50 (M14) was > 10 µM (inactive), the GI50 (U-251) was 17.3 µM (inactive) and the GI50 (Malme-3M) was 40.6 µM (inactive). For the same compound, the GI50 (SK-MEL-2) was 20.9 µM (inactive), the GI50 (ACHN) was 32.1 µM (inactive) and the GI50 (SF-268) was 29.5 µM (inactive). For the same compound, the GI50 (HL-60) was 18.9 µM (inactive), the GI50 (HCT-116) was > 10 µM (inactive) and the GI50 (HT-29) was 17.6 µM (inactive). The GI50 (DMS-114) was > 10 µM (inactive).
